{"source": "patent US9114164B2", "about": "(MEXICHEM AMANCO HOLDING S.A. DE C.V., priority 2011, dated 2015)", "experiment": "in vitro aerosolization performance from MDI, Next Generation Impactor (NGI) with HPLC", "format": "physicochemical", "conditions": "formulated with R-152a rather than R-134a", "method": "Drug was weighed directly into standard aluminium 19 mL cans (C128, Presspart, Blackburn, UK). The cans were then crimped with a 50 μL valve (Bespak, Kings Lynn, UK). Finally, the propellant was filled into the cans through the valve using a manual Pamasol crimper/filler (Pamasol, Switzerland). High performance liquid chromatography (HPLC) was used to determine drug content following aerosolization studies (see below). The HPLC machine consisted of a pump, column oven, column coupled to a UV detector (all Agilent 1200, Wokingham, Berkshire, UK). A Hypersil BDS C18 column (Fisher, Loughborough, UK, 5 μm, 250×4.6 mm i.d.) was used for high-throughput analysis of samples. The in vitro aerosolization performance of the formulations was studied using a Next Generation Impactor (NGI, Copley Scientific, Nottingham UK), which was connected to a vacuum pump (GE Motors, NJ, USA). Prior to testing, the cups of the NGI system were coated with 1% v/v silicone oil in hexane to eliminate particle bounce. For each experiment, three actuations of the can were discharged into the NGI at 30 L·min^−1 as per pharmacopeia guidelines. […] The mass of drug deposited on each part of the NGI was determined by HPLC. This protocol was repeated three times for the can, following which, the fine particle dose (FPD) and fine particle fraction of the emitted dose (FPFED) were determined.", "data": [{"substance": "salbutamol sulphate", "values": [{"measurement": "emitted dose, comparison in words", "result": "significantly (p<0.05) greater"}]}]}
